Experimental findings from publication PMC5400099, “5-Hydroxyethyl-3-tetradecanoyltetramic acid represents a novel treatment for intravascular catheter infections due to Staphylococcus aureus” (Journal of Antimicrobial Chemotherapy, 2016) are described below.

For series [1], the system named is S. aureus USA300 and SH1000 biofilms. In words: Biofilm viability by live/dead imaging. The format is cell-based, Staphylococcus aureus. Particulars: 128 mg/L, 24 h, both strains (USA300 MRSA and SH1000 MSSA), live/dead staining. On the procedure:
Biofilms were formed as previously described to mimic in vivo conditions that promote formation of coagulase-mediated biofilms.[16] Briefly, microtitre plates or glass-bottom culture dishes (MaTek Co., USA) were coated with either 20% (v/v) or 100% (v/v) human plasma, respectively, and inoculated with S. aureus at an OD600 ∼0.2. After 1 h, non-adherent bacteria were aspirated, replaced with fresh RPMI-1640 and biofilms allowed to form over 24 h at 37 °C. Pre-formed biofilms were treated for 24 h with either 5HE-C14-TMA, C14-TOA or C14-TTA or a positive control [ethanol at 40% (v/v)]. Biofilm viability was measured by (i) resazurin-conversion assay (in microtitre wells), or (ii) live/dead imaging (glass-bottom dishes). Conversion of the non-fluorescent redox dye, resazurin into the fluorescent resorufin was performed as described previously.[16] A 44 μM resazurin (Sigma-Aldrich, UK) solution in RPMI-1640 was added to an equal biofilm volume and incubated for 1 h at 37 °C. Fluorescence (excitation 544 nm, emission 590 nm) was quantified using a Perkin Elmer 2030 Multilabel Reader Victor^TM X3. Biofilms were stained with SYTO9 Green (at 13.36 μM) and propidium iodide (at 80 μM) (Molecular Probes®) for 1 h prior to washing. […] Fluorescence intensity was quantified using Image J1 software (http://imagej.net/Welcome).

The test system of the next series is S. aureus strain BH1CC. Description: MIC by broth microdilution (CLSI), strain BH1CC. The format is cell-based. Particulars: Staphylococcus aureus; BH1CC (MRSA), Mueller–Hinton broth. On the procedure: (§1) Community-acquired MRSA (CA-MRSA) strain USA300, its isogenic agr mutant,[17] the hospital-acquired MRSA (HA-MRSA) strain BH1CC,[18] the HA-MSSA strain BH48[19] and the MSSA strain SH1000[20] were cultured in Mueller–Hinton broth for susceptibility testing or in RPMI-1640 (Gibco) for biofilm formation. For the rat jugular vein catheter infection model, the S. aureus strain USA300 (LAC) lux[21] was used.
(§2) 5HE-C14-TMA and C14-TOA were synthesized as described previously[9] and C14-TTA as described in the Supplementary data available at JAC Online. Stock solutions of the compounds in DMSO at 10–50 mM were further diluted into tissue culture media or sodium chloride for the in vivo experiments. A DMSO solvent control was used in all in vitro experiments. The following antibiotics were used: vancomycin (Vancocin; Flynn Pharma Ltd., Republic of Ireland), daptomycin (Cubicin; Novartis, UK), gentamicin (Hospira, UK) and tigecycline (Tygacil; Pfizer Inc.). MICs were determined by broth microdilution in Mueller–Hinton broth, as recommended by the CLSI.

The test system of the next series is S. aureus strain USA300. Description: MIC by broth microdilution (CLSI), strain USA300. The class given is cell-based. The conditions noted are these: Staphylococcus aureus; USA300 (MRSA), Mueller–Hinton broth. On the procedure: as §1, §2
Series [2] deals with S. aureus transmembrane potential. In words: Dissipation of bacterial membrane potential, DiSC3(5) fluorescence. The class given is cell-based, Staphylococcus aureus. The conditions noted are these: 30 μM. How it is done: Transmembrane potential was determined as described by Breeuwer and Abee[23] Staphylococcal cells were resuspended in potassium phosphate buffer (50 mM, pH 7) containing 5 μM of the cationic fluorescent dye DiSC3(5) (Invitrogen) and fluorescence determined (excitation 650 nm, emission 680 nm).

Series [3] relates to Human keratinocyte (HaCaT) cells. Description: MTT cell viability assay, HaCaT. The class given is cell-based. The conditions noted are these: HaCaT cells. On the procedure:
(§3) Human keratinocyte (HaCaT) cells were cultured in DMEM supplemented with 10% (v/v) FBS. Primary human umbilical vein endothelial cells (HUVECs) were cultured in EGM™-2 Bulletkit (Lonza) medium. HaCaT and HUVECs were harvested using TrypLE^TM Express (Gibco). Cells were seeded in microtitre plates at 3 × 10^5 cells/mL and incubated for 24 h at 37 °C with an antimicrobial compound ([…]) or Triton X100 at 1% (v/v). After removing the medium, cells were incubated with 500 mg/L MTT (Sigma-Aldrich) for 4 h. The crystals formed were solubilized with DMSO. Absorbance was recorded at 560 nm and the CC50 was determined.

Series [4] can be described thus: MTT cell viability assay, HaCaT. The class given is cell-based, Human. The conditions noted are these: human, HaCaT keratinocyte cells; HaCaT, MTT, 24 h. On the procedure: as §3
A short description of the next series: Haemolysis assay. The format is cell-based. Particulars: red blood cells; human RBC; read-out: CC50 (haemolytic activity). On the procedure:
Human blood containing EDTA (1.6 g/L) was centrifuged at 1000 g for 5 min. Red blood cells (RBC) were washed twice with PBS, diluted 2-fold and incubated with compounds or Triton X100 (positive control) at 0.5% (v/v). A570 was determined to quantify haemolysis. IC50s were derived from the corresponding dose–response curves.

The subject of another series is S. aureus USA300 LAC. In words: Bactericidal activity (time-kill, viable counts). The format is cell-based, Staphylococcus aureus. The conditions noted are these: 8 × MIC. How it is done: S. aureus USA300 LAC was grown overnight in LB medium, diluted 250-fold and grown to an OD600 0.5. Cells were diluted to 1 × 10^6 per mL in challenge medium (LB plus 5HE-C14-TMA, C14-TOA or C14-TTA at 8 × MIC). Samples were removed and viable counts determined at 30 min intervals for the first hour followed by hourly sampling. The CLSI defines a compound as bactericidal if it reduces the starting inoculum colony count by at least 99.9% (3-logs).

The next series deals with S. aureus strain SH1000. Description: MIC by broth microdilution (CLSI), strain SH1000. The class given is cell-based. Particulars: Staphylococcus aureus; SH1000 (MSSA), Mueller–Hinton broth. On the procedure: as §1, §2
Series [5] concerns IL-8 and TNF-α release in human blood. The class given is cell-based. How it is done:
EDTA-treated human blood was incubated in microtitre wells containing either S. aureus USA300 biofilm, 5HE-C14-TMA (at 256 mg/L) only or biofilm with 5HE-C14-TMA (at 256 mg/L) and incubated for 2 h at 37 °C. Plasma samples were collected by centrifugation (1000 g) and assayed for human cytokines using a Bio-Plex 200 (Bio-Rad). A standard curve was employed to maximize sensitivity for samples containing low cytokine levels. At least three different donor blood samples (with three replicates for each) were used.

Series [6] deals with MRSA (USA300 JE2 and BH1CC) and MSSA (SH1000 and BH48) strains. In words: MIC by broth microdilution, MRSA and MSSA strains. The format is cell-based, Staphylococcus aureus. The conditions noted are these: MRSA and MSSA strains investigated. On the procedure: as §1, §2
Where [7] appears, read: 256 mg/L for 2 h, sub-bactericidal dose.

In brackets after ≈: the same amount, converted by molar mass. Several values for one entry are separate records, joined by “and”; a condition that tells them apart may be missing. Equal values may be shown once. Some results are limits rather than exact numbers.

The compound `CCCCCCCCCCCCCC(=O)C1=C(O)N[C@@H](CCO)C1=O` [5HE-C14-TMA, 5-hydroxyethyl-3-tetradecanoyltetramic acid] returned a Biofilm killing in [1] above 50%. The minimal inhibitory concentration (MIC) in the series with S. aureus strain BH1CC is 6.25 µM and 2 µg/mL; with S. aureus strain USA300, 6.25 µM and 2 µg/mL; in the series with S. aureus strain SH1000, 6.25 µM and 2 µg/mL; in series [6] it was 2 µg/mL (≈ 5.66 µM); in [6] (Staphylococcus aureus), 2 to 4 µg/mL (≈ 5.66 to 11.3 µM). Further, the “Membrane depolarization (DiSC3(5) fluorescence)” value in [2] is reported as “increase in fluorescence, indicative of membrane depolarization”. For the same compound, in [3], the “Selectivity index (SI, CC50/MIC)” value is 32. Moreover, the CC50 at 24 h in series [4] was 181 µM and 64 µg/mL. Also, the CC50 in the series “Haemolysis assay” is 246 µM and 87 µg/mL. The compound also showed a Reduction of viability in the series with S. aureus USA300 LAC (USA300, over 30 min) of 3 logs. The “Bactericidal activity (CLSI: at least 3-log reduction)” value in the series with S. aureus USA300 LAC (planktonic USA300) was “bactericidal”. Further, in series [5] (setting [7]), the “IL-8 level in blood exposed to USA300 biofilm with compound” value is recorded as “substantial reductions”. Moreover, in series [5] (setting [7]), the “TNF-α level in blood exposed to USA300 biofilm with compound” value is “substantial reductions”. For the same compound, the “Cytokine levels in whole human blood, agent only” value in [5] (256 mg/L, 2 h, no biofilm) is “no increase in cytokine levels”. In addition, the “IL-8 and TNF-α levels in response to USA300 agr mutant biofilm with compound” value in series [5] (same dose (256 mg/L), agr mutant biofilm) is “no further effect”.
